Source: PMC6718736, “Validation of in vitro methods for human cytochrome P450 enzyme induction: Outcome of a multi-laboratory study” (Toxicology in Vitro, 2019)
Like-named read-outs stand apart in the source and are kept apart here.

Columns and labels:
[1] = cited from earlier work
CYP3A4 [2] = experiment: CYP3A4 enzyme induction assay in cryopreserved primary human hepatocytes (PHH); conditions: for Assigned classification CYP3A4: PHH
CYP1A2 [3] = experiment: CYP1A2 enzyme induction assay in cryopreserved HepaRG cells (phenacetin probe, LC/MS); format: in vitro ADME, human; conditions: for Assigned classification CYP1A2: HepaRG; on Assigned classification CYP1A2: key: 1=Positive=inducer; 0=Negative=non-inducer
CYP2B6 [4] = conditions: cited from earlier work
CYP1A2 [5] = experiment: CYP1A2 enzyme induction assay in cryopreserved primary human hepatocytes (PHH); format: in vitro ADME; conditions: for Prediction in vivo inducer: Cmax/F2 >0.5 criterion; for Assigned classification CYP1A2: PHH;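 on Assigned classification CYP1A2: code 1 means positive inducer and 0 means non-inducer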
[6] = Solubility by nephelometry (EURL ECVAM); format: physicochemical
Description: In addition to the visual inspection performed by the validation laboratories as described in the SOP, EURL ECVAM introduced nephelometry for systematic solubility determination of the 13 validation set chemicals. Nephelometry uses a laser beam and the principle of Tyndall effect light scatter to detect turbidity due to insolubility. The nephelometer method used formazin as reference item (1, 5, 10 and 20 nephelometric turbidity units (NTU)) to calculate the relative turbidity (RTU) of the validation set of chemicals. To the naked eye, 20 NTU is perceptible, while the nephelometer was sensitive to 5 NTU, with 1 NTU equivalent to background (solvent/medium blank).

CYP1A2 [7] = conditions: cited from earlier work
CYP3A4 [8] = experiment: CYP3A4 enzyme induction assay in cryopreserved HepaRG cells (midazolam probe, LC/MS); format: in vitro ADME, human; conditions: for Assigned classification CYP3A4: HepaRG; on Assigned classification CYP3A4: key: 1=Positive=inducer; 0=Negative=non-inducer
CYP = CYP isoforms induced; ref Abadie et al. (2009), Richert et al. (2010), Preissner et al. (2010), Hoffmann et al. (2014); cited from earlier work
CYP2B6 [9] = experiment: CYP2B6 enzyme induction assay in cryopreserved primary human hepatocytes (PHH); format: in vitro ADME; conditions: for Assigned classification CYP2B6: PHH;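 on Assigned classification CYP2B6: code 1 means positive inducer and 0 means non-inducer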
CYP3A4 [10] = conditions: cited from earlier work
[11] = Solubility by visual inspection (DMSO stock solution and assay medium); format: physicochemical; conditions: assay medium
Method: The SOPs relied on visual inspection for solubility observation. […] The absence of precipitation in the medium was checked pre- and post-incubation (24 hours) by centrifugation of the sample and observation of any precipitation (pellet residue).

CYP2B6 [12] = experiment: CYP2B6 enzyme induction assay in cryopreserved HepaRG cells (bupropion probe, LC/MS); format: in vitro ADME, human; conditions: for Prediction in vivo inducer: Cmax/F2 >0.5 criterion; for Assigned classification CYP2B6: HepaRG; on Assigned classification CYP2B6: key: 1=Positive=inducer; 0=Negative=non-inducer
[13] = human in vivo, CYP named without remark = induced, ref references in the cell, Washington University database, Hoffmann et al. (2014), Pelkonen et al. (2008), Hukkanen et al. (2012)

F2 (CYP3A4 [2]; CYP3A4, PHH): 1.80 to 16.2 µM
Induction in vitro (CYP3A4 [2]; CYP3A4, PHH): Yes
Prediction in vivo inducer (CYP3A4 [2]; CYP3A4, PHH): Yes
Assigned classification CYP3A4 (CYP3A4 [2]; Lab 1, batch 0 6 A): 1
Assigned classification CYP3A4 (CYP3A4 [2]; Lab 1, batch 4 0 8): 0
Assigned classification CYP3A4 (CYP3A4 [2]; Lab 1, batch 8 0 8): 1
Assigned classification CYP3A4 (CYP3A4 [2]; Lab 2, batch 0 6 A): 1
Assigned classification CYP3A4 (CYP3A4 [2]; Lab 2, batch 4 0 8): 1
Assigned classification CYP3A4 (CYP3A4 [2]; Lab 2, batch 8 0 8): 1
Assigned classification CYP3A4 (CYP3A4 [2]; Lab 3, batch 0 6 A): 1
Assigned classification CYP3A4 (CYP3A4 [2]; Lab 3, batch 4 0 8): 1
Assigned classification CYP3A4 (CYP3A4 [2]; Lab 3, batch 8 0 8): 1
Prediction in vivo inducer (CYP1A2 [3]; CYP1A2, HepaRG cells, Cmax/F2 >0.5 criterion): Yes
F2 (CYP1A2 [3]; CYP1A2, HepaRG cells, in vitro concentration producing 2-fold induction): 36.5 µM
Induction in vitro (CYP1A2 [3]; CYP1A2, HepaRG cells, positive in one batch in each of the three laboratories): Yes
Assigned classification CYP1A2 (CYP1A2 [3]; Lab 1, batch 20): 1
Assigned classification CYP1A2 (CYP1A2 [3]; Lab 1, batch 35): 1
Assigned classification CYP1A2 (CYP1A2 [3]; Lab 1, batch 36): 1
Assigned classification CYP1A2 (CYP1A2 [3]; Lab 2, batch 20): 1
Assigned classification CYP1A2 (CYP1A2 [3]; Lab 2, batch 35): 1
Assigned classification CYP1A2 (CYP1A2 [3]; Lab 2, batch 36): 1
Assigned classification CYP1A2 (CYP1A2 [3]; Lab 3, batch 20): 1
Assigned classification CYP1A2 (CYP1A2 [3]; Lab 3, batch 35): 0
Assigned classification CYP1A2 (CYP1A2 [3]; Lab 3, batch 36): 1
Prediction in vivo inducer (CYP1A2 [5]; CYP1A2, PHH, listed as Phenytoin): Yes
Prediction in vivo inducer (CYP1A2 [5]; CYP1A2, PHH, listed as phenytoin): correctly predicted CYP1A2 induction
F2 (CYP1A2 [5]; CYP1A2, PHH, in vitro concentration producing 2-fold induction): 16.2 to 48.6 µM
Induction in vitro (CYP1A2 [5]; CYP1A2, PHH, positive in one donor in each of the three laboratories): Yes
Assigned classification CYP1A2 (CYP1A2 [5]; Lab 1, batch 0 6 A): 1
Assigned classification CYP1A2 (CYP1A2 [5]; Lab 1, batch 4 0 8): 0
Assigned classification CYP1A2 (CYP1A2 [5]; Lab 1, batch 8 0 8): 0
Assigned classification CYP1A2 (CYP1A2 [5]; Lab 2, batch 0 6 A): 1
Assigned classification CYP1A2 (CYP1A2 [5]; Lab 2, batch 4 0 8): 0
Assigned classification CYP1A2 (CYP1A2 [5]; Lab 2, batch 8 0 8): 0
Assigned classification CYP1A2 (CYP1A2 [5]; Lab 3, batch 0 6 A): 1
Assigned classification CYP1A2 (CYP1A2 [5]; Lab 3, batch 4 0 8): 1
Assigned classification CYP1A2 (CYP1A2 [5]; Lab 3, batch 8 0 8): 0
nephelometry finding in assay medium ([6]; 40 μg/ml, the two media): insoluble suspensions
HepaRG medium stability ([6]; ECVAM nephelometry, HepaRG medium, ^2 = solubility limit): 40 µg/mL
PHH medium stability ([6]; ECVAM nephelometry, PHH medium, ^2 = solubility limit): 20 µg/mL
F2 (CYP3A4 [8]; CYP3A4, HepaRG cells): 12.2 µM
Induction in vitro (CYP3A4 [8]; CYP3A4, HepaRG cells): Yes
Prediction in vivo inducer (CYP3A4 [8]; CYP3A4, HepaRG cells): Yes
Assigned classification CYP3A4 (CYP3A4 [8]; Lab 1, batch 20): 1
Assigned classification CYP3A4 (CYP3A4 [8]; Lab 1, batch 35): 1
Assigned classification CYP3A4 (CYP3A4 [8]; Lab 1, batch 36): 1
Assigned classification CYP3A4 (CYP3A4 [8]; Lab 2, batch 20): 1
Assigned classification CYP3A4 (CYP3A4 [8]; Lab 2, batch 35): 1
Assigned classification CYP3A4 (CYP3A4 [8]; Lab 2, batch 36): 1
Assigned classification CYP3A4 (CYP3A4 [8]; Lab 3, batch 20): 1
Assigned classification CYP3A4 (CYP3A4 [8]; Lab 3, batch 35): 1
Assigned classification CYP3A4 (CYP3A4 [8]; Lab 3, batch 36): 1
F2 (CYP2B6 [9]; CYP2B6, PHH): 0.60 to 48.6 µM
Induction in vitro (CYP2B6 [9]; CYP2B6, PHH): Yes
Prediction in vivo inducer (CYP2B6 [9]; CYP2B6, PHH): Yes
Prediction in vivo inducer (CYP2B6 [9]; CYP2B6, PHH, Cmax/F2 >0.5 criterion): positive
Assigned classification CYP2B6 (CYP2B6 [9]; Lab 1, batch 0 6 A): 1
Assigned classification CYP2B6 (CYP2B6 [9]; Lab 1, batch 4 0 8): 1
Assigned classification CYP2B6 (CYP2B6 [9]; Lab 1, batch 8 0 8): 0
Assigned classification CYP2B6 (CYP2B6 [9]; Lab 2, batch 0 6 A): 1
Assigned classification CYP2B6 (CYP2B6 [9]; Lab 2, batch 4 0 8): 1
Assigned classification CYP2B6 (CYP2B6 [9]; Lab 2, batch 8 0 8): 0
Assigned classification CYP2B6 (CYP2B6 [9]; Lab 3, batch 0 6 A): 1
Assigned classification CYP2B6 (CYP2B6 [9]; Lab 3, batch 4 0 8): 1
Assigned classification CYP2B6 (CYP2B6 [9]; Lab 3, batch 8 0 8): 1
HepaRG medium stability ([11]; Lab 1, visual observation): 40 µg/mL
HepaRG medium stability ([11]; Lab 2, visual observation): 20 µg/mL
HepaRG medium stability ([11]; Lab 3, visual observation): 40 µg/mL
PHH medium stability ([11]; Lab 4, visual observation): 40 µg/mL
PHH medium stability ([11]; Lab 5, visual observation): 20 µg/mL
PHH medium stability ([11]; Lab 6, visual observation): 10 µg/mL
Prediction in vivo inducer (CYP2B6 [12]; CYP2B6, HepaRG cells, listed as Phenytoin): Yes
Prediction in vivo inducer (CYP2B6 [12]; CYP2B6, HepaRG cells, listed as phenytoin): correctly classified
F2 (CYP2B6 [12]; CYP2B6, HepaRG cells, in vitro concentration producing 2-fold induction): 1.35 µM
Induction in vitro (CYP2B6 [12]; CYP2B6, HepaRG cells, positive in one batch in each of the three laboratories): Yes
Assigned classification CYP2B6 (CYP2B6 [12]; Lab 1, batch 20): 1
Assigned classification CYP2B6 (CYP2B6 [12]; Lab 1, batch 35): 1
Assigned classification CYP2B6 (CYP2B6 [12]; Lab 1, batch 36): 1
Assigned classification CYP2B6 (CYP2B6 [12]; Lab 2, batch 20): 1
Assigned classification CYP2B6 (CYP2B6 [12]; Lab 2, batch 35): 1
Assigned classification CYP2B6 (CYP2B6 [12]; Lab 2, batch 36): 1
Assigned classification CYP2B6 (CYP2B6 [12]; Lab 3, batch 20): 1
Assigned classification CYP2B6 (CYP2B6 [12]; Lab 3, batch 35): 1
Assigned classification CYP2B6 (CYP2B6 [12]; Lab 3, batch 36): 1
Compound: O=C1NC(=O)C(c2ccccc2)(c2ccccc2)N1 [Phenytoin sodium]
Cmax ([1]; human in vivo plasma concentration, normal dose): 40 to 80 µM
Cmax ([1]; human in vivo, normal dose (Table 10)): 40 to 80 µM
Induction in vivo (CYP2B6 [4]; CYP2B6, human in vivo reference classification): Yes
Induction in vivo (CYP2B6 [4]; CYP2B6, human, ref Table 1): Yes
CYP induction in vivo literature reference: CYP2B6 (CYP2B6 [4]; [13]): CYP2B6
Induction in vivo (CYP1A2 [7]; CYP1A2, human, ref Table 1): Yes
CYP induction in vivo literature reference: CYP1A2 (CYP1A2 [7]; [13]): CYP1A2
CYP induction in vitro (human hepatocytes) (CYP): CYP1A2, CYP2B6, CYP3A4
Induction in vivo (CYP3A4 [10]; CYP3A4, human in vivo reference classification (Table 11)): Yes
CYP induction in vivo literature reference: CYP3A4 (CYP3A4 [10]; [13]): CYP3A4
